pIC50: −log10 of the molar value.
Columns and labels:
K562 = assay: Antiproliferation assay (MTS), K562 cells; type: cell-based; details: Homo sapiens, K562, 96 h, Table 1, read-out: Antiproliferative IC50 K562
Outline: (§1)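 Cells seeded after overnight attachment were treated in triplicate for 96 h at 37 °C, 5% CO2, final DMSO below 1%. Viability read by MTS absorbance; concentration-response curves fitted by linear regression against DMSO controls.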

MDA-MB-231 = assay: Antiproliferation assay (MTS), MDA-MB-231 cells; type: cell-based; details: Homo sapiens, MDA-MB-231, 96 h, read-out: Antiproliferative IC50 MDA-MB-231, Table 1
Outline: as §1

HeLa cell = assay: Immunostaining and microscopy, metaphase chromosomal misalignment; type: cell-based; details: compared to control (DMSO)
Experimental: Immunostaining and Microscopy: Cells were grown on polylysine-coated coverslips. Cells were gently washed with BRB80 buffer (80 mM piperazine-N,N′-bis(2-ethanesulfonic acid) (PIPES) pH 6.8, 5 mM EGTA, 1 mM MgCl2) before fixation with cold 100% methanol or 4% paraformaldehyde in BRB80 or phosphate-buffered saline (PBS). Following permeabilization with 0.4% Triton X-100, cells were blocked with 2% bovine serum albumin (BSA) in PBS and then incubated with anti-α-Tubulin antibodies (mouse, FITC Conjugate; Sigma Aldrich, St. Louis Mo. USA) diluted in 2% BSA in PBS. DAPI (4′,6′-diamidino-2-phenylindole) staining was applied after secondary antibody incubation, and cells were mounted on cover slides with Prolong gold antifade reagent (Life Technologies, Carlsbad Calif. USA 92008). Images were captured with a Zeiss Axioplan 2 microscope equipped with a deconvolution module or with a Zeiss LSM-510 META laser scanning confocal microscope (Carl Zeiss Microscopy, Thomwood N.Y. 10594 USA).
After fixation, cells are stained with anti-tubulin antibody and DAPI to stain for microtubules and DNA, respectively, and imaged. […] Fluorescent images were taken of the cells and the percentage of cells with metaphase misalignment were counted and recorded.

cancer cells = assay: DNA content analysis (propidium iodide, FACS); type: cell-based
Experimental: DNA Content Analysis: Cells were plated in a 10-cm culture plate and cultured overnight. Cells were incubated with the compound for the indicated time and collected at the indicated time points. Cells were fixed with 70% ethanol overnight, stained with propidium iodide solution (1.25 mg/ml propidium iodide (Sigma) and 20 μl/ml […] in PBS) and subjected to fluorescence activated cell sorting (FACS). The results were analyzed by Cell Quest software (BD Biosciences, San Jose Calif. 95131 USA).

cyclin B1 and cyclin D1 = assay: Immunoblot of cyclin B1 and cyclin D1; type: cell-based; details: 1 μM
Experimental: Immunoblot Analysis: For immunoblotting experiments, cells were plated in a 6-well culture plate and cultured overnight. Cells were incubated with the test compounds for the indicated time and whole cell lysate was harvested by adding 1×SDS-PAGE Sample Buffer (62.5 mM Tris-HCl (pH 6.8 at 25° C.), 2% w/v SDS, 10% glycerol, 50 mM DTT, and 0.01% w/v bromophenol blue or phenol red). Proteins were separated by SDS-PAGE electrophoresis and transferred to PVDF membrane. Protein expression was immunoblotted using various primary antibodies and detected using Immobilon Western Chemiluminescent HRP Substrate (Millipore, Billerica Mass. 01821 USA). Antibodies used include anti-Cleaved Caspase3, (Rabbit, Cell Signaling Technology, Danvers Mass. 01923 USA); anti-PARP (Rabbit, Cell Signaling Technology, Danvers Mass. 01923 USA); anti-MCL-1 (mouse, BD Biosciences, San Jose Calif. 95131 USA); anti-XIAP (rabbit, Cell Signaling Technology, Danvers Mass. 01923 USA); anti-Bcl-2 (mouse, Santa Cruz Biotechnology, Santa Cruz Calif. 95060); anti-Cyclin BI (mouse, BD Biosciences, San Jose Calif. 95131 USA); anti-Cyclin D1 (mouse, Santa Cruz Biotechnology, Santa Cruz Calif. 95060); Anti-Nek2 (mouse, BD Biosciences, San Jose Calif. 95131 USA); Anti-HEC1, (rabbit, GeneTex, Inc., Irvine Calif. 92606 USA); and anti-actin (mouse, Millipore, Billerica Mass. 01821 USA). […]

BT474 xenograft = assay: Mouse xenograft study, BT474 breast cancer; type: in vivo, nude mice
Experimental: Mouse Xenograft Studies: Xenograft studies adapted from a previous published protocol (Wu et al, Cancer Res. 2008 Oct. 15; 68(20):8393-9). Female BALB/c nude (nu/nu) mice (5-8 weeks) were obtained from Lasco (Industrial Park, Tai-Ping Area, Taichung City, Taiwan). The animals were maintained under specific pathogen-free conditions, and food and water were supplied ad libitum. Housing and all procedures involving animals were performed according to protocols approved by the IACUC in DCB. Nude mice were inoculated with 17-β-estradiol pellets 72 to 96 h before implantation of BT-474 cells. For subcutaneous implantation of BT-474 cells, cells (1×10^7 in matrix gel/animal) were injected subcutaneously into the right subaxillary region. Treatment started when average tumor volume reached about 200 mm^3; mice were treated (p.o., QD/28 cycles in total) with vehicle A (0.5% methylcellulose), or candidate compounds formulated in vehicle A (10-50 mg/kg body weight). Perpendicular diameter measurement of each tumor were made with digital calipers and the volume of the tumor calculated using formula (L×W×W)/2, in which L and W represent the length and the width, respectively. Body weights were measured three times weekly.
The in vivo effectiveness of contemplated compounds in the reduction of tumor volume in nude mice is readily apparent.
Development of resistance to treatment in advanced stage tumors is a well known phenomenon. Activity of select Hec1 inhibitor in such late stage tumors was determined by re-dosing of BT474 xenografted animals that had previously subjected to 35 days of treatment with 110095 (compound 27 of Table 1). Re-treatment with 110095 was starting on day 42 and continued for 21 days.

Compound: COCCOc1cnc(Sc2cc(C)c(-c3csc(NC(=O)c4ccncc4)n3)c(C)c2)cn1 [Compound 27, N-(4-{4-(5-(2-methoxyethoxy)pyrazin-2-ylthio)-2,6-dimethylphenyl}thiazol-2-yl)isonicotinamide]
- pIC50 (K562): 7.74
- pIC50 (MDA-MB-231): 7.45
- number of cells with metaphase misalignment (HeLa cell): time-dependent increase in the number of cells with metaphase misalignment
- sub-G1 population (apoptotic cells) (cancer cells): increase in the sub-G1 population
- cyclin B1 and cyclin D1 levels (cyclin B1 and cyclin D1): cyclin BI and cyclin D degradation
- xenograft tumor outgrowth (BT474 xenograft; BT474 breast cancer xenograft, nude mice): inhibition of xenograft tumor outgrowth
- activity in late stage tumors on re-treatment (BT474 xenograft; BT474 xenografted animals after 35 days of treatment, re-treatment from day 42 for 21 days): remained effective with late stage tumors
